Read-outs that look alike come from different tables or passages of the source.
Biological target: T1, IRAK4 (Homo sapiens, UniProt Q9NWZ3)
T1 construct: Degradation of IRAK4 in OCI-LY10 was quantitatively measured using Meso Scale Discovery technology; endogenous in cells; host or cells: OCI-LY10
T1 sequence (Q9NWZ3 1-460): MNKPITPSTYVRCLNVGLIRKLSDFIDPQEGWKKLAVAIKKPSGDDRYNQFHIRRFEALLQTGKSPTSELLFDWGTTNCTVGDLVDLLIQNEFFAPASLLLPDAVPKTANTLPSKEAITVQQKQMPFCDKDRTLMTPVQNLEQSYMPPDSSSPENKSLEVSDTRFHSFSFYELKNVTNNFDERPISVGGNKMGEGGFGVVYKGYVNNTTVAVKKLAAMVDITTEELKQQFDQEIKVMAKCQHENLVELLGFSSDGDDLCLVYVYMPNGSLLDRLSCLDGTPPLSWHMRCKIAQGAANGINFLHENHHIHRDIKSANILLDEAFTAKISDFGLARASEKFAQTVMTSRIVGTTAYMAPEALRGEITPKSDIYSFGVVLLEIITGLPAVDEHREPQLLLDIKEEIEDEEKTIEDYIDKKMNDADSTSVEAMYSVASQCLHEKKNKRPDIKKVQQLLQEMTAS
Assay: IRAK4 MSD Degradation in OCI-LY10
Format: cell-based
Conditions: OCI-LY10 cells, MSD
In short: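 DC50, from a three-parameter logistic fit and reported as letter bins A (<0.01 μM), B, C, D (>0.2 μM or not tested), reflects IRAK4 loss measured by MSD electrochemiluminescence in OCI-LY10 lysates. Treatment: 8 doses, 1:3 steps, top 1 to 10 μM, 4 to 24 h, 37 °C.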

[1] = 4 hrs incubation, read-out: IRAK4 degradation in OCI-LY10 at 4 hrs: DC50
[2] = 24 hrs incubation, read-out: IRAK4 degradation in OCI-LY10 at 24 hrs: DC50

DC50 [1] [nM]	DC50 [2] [nM]	Structure (SMILES)
> 200	> 200	Cn1c(=O)n(C2CCC(=O)NC2=O)c2ccc(N3CC(N4CCN([C@H]5CC[C@H](n6cc(NC(=O)c7cnn8ccc(N9C[C@H]%10C[C@@H]9CO%10)nc78)c(C(F)F)n6)CC5)CC4)C3)c(F)c21 (stereo partly drawn) [I-751]
> 200	> 200	Cn1c(=O)n(C2CCC(=O)NC2=O)c2ccc(C3CN(C4CCN([C@H]5CC[C@H](n6cc(NC(=O)c7cnn8ccc(N9C[C@H]%10C[C@@H]9CO%10)nc78)c(C(F)F)n6)CC5)CC4(F)F)C3)c(F)c21 (stereo partly drawn) [I-752]
> 200	> 200	Cn1c(=O)n(C2CCC(=O)NC2=O)c2ccc(F)c(C3CN(C4CCN([C@H]5CC[C@H](n6cc(NC(=O)c7cnn8ccc(N9C[C@H]%10C[C@@H]9CO%10)nc78)c(C(F)F)n6)CC5)CC4(F)F)C3)c21 (stereo partly drawn) [I-753]
> 200	> 200	Cn1c(=O)n(C2CCC(=O)NC2=O)c2cccc(OC3CCN([C@H]4CC[C@H](n5cc6cc(NC(=O)c7cccc(C(F)(F)F)n7)ccc6n5)CC4)CC3(F)F)c21 (stereo partly drawn) [I-754]
> 200	> 200	Cn1c(=O)n(C2CCC(=O)NC2=O)c2cccc(OC3CCN([C@H]4CC[C@H](n5cc6cc(NC(=O)c7cccc(C(F)(F)F)n7)ncc6n5)CC4)CC3(F)F)c21 (stereo partly drawn) [I-755]
> 200	> 200	Cn1c(=O)n(C2CCC(=O)NC2=O)c2cccc(OC3CCN([C@H]4CC[C@H](n5cc(NC(=O)c6cnn7ccc(N8C[C@H]9C[C@@H]8CO9)nc67)c(C(F)F)n5)CC4)CC3(F)F)c21 (stereo partly drawn) [I-756]
> 200	> 200	Cn1c(=O)n(C2CCC(=O)NC2=O)c2cccc(C#CCN3CCC(C[C@H]4CC[C@H](n5cc(NC(=O)c6cnn7ccc(N8C[C@H]9C[C@@H]8CO9)nc67)c(C(F)F)n5)CC4)CC3)c21 (stereo partly drawn) [I-757]
> 200	> 200	Cn1c(=O)n(C2CCC(=O)NC2=O)c2cccc(C#CCN3CCC(C[C@H]4CC[C@H](n5cc6cc(NC(=O)c7cccc(C(F)(F)F)n7)ccc6n5)CC4)CC3)c21 (stereo partly drawn) [I-758]
> 200	> 200	Cn1c(=O)n(C2CCC(=O)NC2=O)c2cccc(C#CCN3CCC(C[C@H]4CC[C@H](n5cc6cc(NC(=O)c7cccc(C(F)(F)F)n7)ncc6n5)CC4)CC3)c21 (stereo partly drawn) [I-759]
> 200	> 200	Cn1c(=O)n(C2CCC(=O)NC2=O)c2cccc(N3CC(C4CCN([C@H]5CC[C@@H](n6cc(NC(=O)c7cnn8ccc(N9C[C@H]%10C[C@@H]9CO%10)nc78)c(C(F)F)n6)CC5)CC4(F)F)C3)c21 (stereo partly drawn) [I-760]
> 200	> 200	Cn1c(=O)n(C2CCC(=O)NC2=O)c2cccc(N3CC(C4CCN(C[C@H]5CC[C@H](n6cc(NC(=O)c7cnn8ccc(N9C[C@H]%10C[C@@H]9CO%10)nc78)c(C(F)F)n6)CC5)CC4(F)F)C3)c21 (stereo partly drawn) [I-761]
> 200	> 200	Cn1c(=O)n(C2CCC(=O)NC2=O)c2cccc(N3CC(C4CCN([C@H]5CC[C@H](n6cc(NC(=O)c7cnn8ccc(N9C[C@H]%10C[C@@H]9CO%10)nc78)c(C(F)F)n6)CC5)CC4(F)F)C3)c21 (stereo partly drawn) [I-762]
> 200	> 200	Cn1c(=O)n(C2CCC(=O)NC2=O)c2cccc(N3CCN(C(=O)C[C@]4(O)CC[C@@H](n5cc(NC(=O)c6cnn7cccnc67)c(C(F)F)n5)CC4)CC3)c21 (stereo partly drawn) [I-763]
> 200	> 200	Cn1c(=O)n(C2CCC(=O)NC2=O)c2cccc(N3CCN(C(=O)C[C@]4(O)CC[C@@H](n5cc6cc(NC(=O)c7cccc(C(F)(F)F)n7)ncc6n5)CC4)CC3)c21 (stereo partly drawn) [I-764]
> 200	> 200	COc1cc(NC(=O)c2cccc(C(F)(F)F)n2)cc2cn([C@H]3CC[C@H](CN4CCN(c5c(F)ccc6c5n(C)c(=O)n6C5CCC(=O)NC5=O)CC4)CC3)nc12 (stereo partly drawn) [I-765]
> 200	> 200	COc1nc(NC(=O)c2cccc(C(F)(F)F)n2)cc2cn([C@H]3CC[C@H](CN4CCN(c5cccc6c5n(C)c(=O)n6C5CCC(=O)NC5=O)CC4)CC3)nc12 (stereo partly drawn) [I-766]
> 200	> 200	Cn1c(NC(=O)c2cccc(C(F)(F)F)n2)cc2cn([C@H]3CC[C@H](CN4CCN(c5cccc6c5n(C)c(=O)n6C5CCC(=O)NC5=O)CC4)CC3)nc2c1=O (stereo partly drawn) [I-767]
> 200	> 200	Cc1cccc(C(=O)Nc2cc3cn([C@H]4CC[C@H](CN5CC[C@@H](c6cccc7c6n(C)c(=O)n7C6CCC(=O)NC6=O)[C@H](F)C5)CC4)nc3c(=O)n2C)n1 (stereo partly drawn) [I-768]
> 200	> 200	COc1nc(NC(=O)c2cccc(C(F)(F)F)n2)cc2cn([C@H]3CC[C@H](CN4CCC(c5cccc6c5n(C)c(=O)n6C5CCC(=O)NC5=O)C(F)(F)C4)CC3)nc12 (stereo partly drawn) [I-769]
> 200	> 200	COc1nc(NC(=O)c2cccc(C)n2)cc2cn([C@H]3CC[C@H](CN4CCC(c5cccc6c5n(C)c(=O)n6C5CCC(=O)NC5=O)C(F)(F)C4)CC3)nc12 (stereo partly drawn) [I-770]
> 200	> 200	Cn1c(NC(=O)c2cccc(C(F)(F)F)n2)cc2cn([C@H]3CC[C@H](CN4CCC(c5cccc6c5n(C)c(=O)n6C5CCC(=O)NC5=O)C(F)(F)C4)CC3)nc2c1=O (stereo partly drawn) [I-771]
> 200	> 200	Cc1cccc(C(=O)Nc2cc3cn([C@H]4CC[C@H](CN5CCC(c6cccc7c6n(C)c(=O)n7C6CCC(=O)NC6=O)C(F)(F)C5)CC4)nc3c(=O)n2C)n1 (stereo partly drawn) [I-772]
> 200	> 200	COc1nc(NC(=O)c2cccc(C(F)(F)F)n2)cc2cn([C@H]3CC[C@H](CN4CC[C@@H](c5cccc6c5n(C)c(=O)n6C5CCC(=O)NC5=O)[C@H](F)C4)CC3)nc12 (stereo partly drawn) [I-773]
> 200	> 200	COc1nc(NC(=O)c2cccc(C(F)(F)F)n2)cc2cn([C@H]3CC[C@H](CN4CC[C@H](c5cccc6c5n(C)c(=O)n6C5CCC(=O)NC5=O)[C@@H](F)C4)CC3)nc12 (stereo partly drawn) [I-774]
> 200	> 200	COc1nc(NC(=O)c2cccc(C)n2)cc2cn([C@H]3CC[C@H](CN4CC[C@@H](c5cccc6c5n(C)c(=O)n6C5CCC(=O)NC5=O)[C@H](F)C4)CC3)nc12 (stereo partly drawn) [I-775]
> 200	> 200	Cn1c(NC(=O)c2cccc(C(F)(F)F)n2)cc2cn([C@H]3CC[C@H](CN4CC[C@@H](c5cccc6c5n(C)c(=O)n6C5CCC(=O)NC5=O)[C@H](F)C4)CC3)nc2c1=O (stereo partly drawn) [I-776]
> 200	> 200	Cn1c(=O)n(C2CCC(=O)NC2=O)c2cccc(N3CCC(C[C@H]4CC[C@H](n5cc6cc(NC(=O)c7cccc(C(F)(F)F)n7)ncc6n5)CC4)CC3)c21 (stereo partly drawn) [I-777]
> 200	> 200	O=C1CCC(c2ccc(N3CC(CN4CCN(C[C@H]5CC[C@H](n6cc(NC(=O)c7cnn8ccc(N9C[C@H]%10C[C@@H]9CO%10)nc78)c(C(F)F)n6)CC5)CC4)C3)cc2Cl)C(=O)N1 (stereo partly drawn) [I-778]
> 200	> 200	O=C1CCC(c2ccc(N3CC(N4CCN([C@H]5CC[C@H](n6cc(NC(=O)c7cnn8ccc(N9C[C@H]%10C[C@@H]9CO%10)nc78)c(C(F)F)n6)CC5)CC4)C3)cc2Cl)C(=O)N1 (stereo partly drawn) [I-779]
> 200	> 200	O=C1CCC(c2ccc([C@H]3C[C@H](CO[C@H]4CCN(C[C@H]5CC[C@H](n6cc(NC(=O)c7cnn8ccc(N9C[C@H]%10C[C@@H]9CO%10)nc78)c(C(F)F)n6)CC5)C[C@H]4F)C3)cc2Cl)C(=O)N1 (stereo partly drawn) [I-780]

From patent US12091411B2, “IRAK degraders and uses thereof” (Kymera Therapeutics, Inc., priority 2022, dated 2024)
